ChEMBL document CHEMBL1641586, “Stereospecific synthesis and structure-activity relationships of unsymmetrical 4,4-diphenylbut-3-enyl derivatives of nipecotic acid as GAT-1 inhibitors” (Bioorg Med Chem Lett, 2011)

target: Cytochrome P450 2C19 (Homo sapiens, UniProt P33261); assay: Inhibition of CYP2C19; format: ADME
Sequence (P33261 whole entry): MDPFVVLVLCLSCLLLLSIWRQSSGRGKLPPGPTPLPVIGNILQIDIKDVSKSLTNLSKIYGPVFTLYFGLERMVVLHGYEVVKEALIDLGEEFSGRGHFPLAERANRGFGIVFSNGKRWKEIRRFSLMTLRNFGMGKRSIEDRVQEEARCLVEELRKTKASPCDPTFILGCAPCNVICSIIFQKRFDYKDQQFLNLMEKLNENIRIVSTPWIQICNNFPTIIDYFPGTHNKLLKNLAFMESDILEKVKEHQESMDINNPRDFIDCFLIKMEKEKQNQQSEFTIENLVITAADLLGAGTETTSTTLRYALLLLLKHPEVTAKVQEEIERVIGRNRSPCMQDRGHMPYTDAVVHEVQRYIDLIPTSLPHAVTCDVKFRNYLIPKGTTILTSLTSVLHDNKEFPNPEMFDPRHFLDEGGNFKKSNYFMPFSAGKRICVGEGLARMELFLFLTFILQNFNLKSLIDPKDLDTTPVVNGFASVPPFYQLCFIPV

| IC50 [nM] | Compound |
| --- | --- |
| > 10000 | Cc1ccccc1/C(=C\CCN1CCC[C@@H](C(=O)O)C1)c1ccccc1F |

target: T1, Sodium- and chloride-dependent GABA transporter 2 (Homo sapiens, UniProt Q9NSD5); assay: Inhibition of GAT2
T1 sequence (Q9NSD5 whole entry): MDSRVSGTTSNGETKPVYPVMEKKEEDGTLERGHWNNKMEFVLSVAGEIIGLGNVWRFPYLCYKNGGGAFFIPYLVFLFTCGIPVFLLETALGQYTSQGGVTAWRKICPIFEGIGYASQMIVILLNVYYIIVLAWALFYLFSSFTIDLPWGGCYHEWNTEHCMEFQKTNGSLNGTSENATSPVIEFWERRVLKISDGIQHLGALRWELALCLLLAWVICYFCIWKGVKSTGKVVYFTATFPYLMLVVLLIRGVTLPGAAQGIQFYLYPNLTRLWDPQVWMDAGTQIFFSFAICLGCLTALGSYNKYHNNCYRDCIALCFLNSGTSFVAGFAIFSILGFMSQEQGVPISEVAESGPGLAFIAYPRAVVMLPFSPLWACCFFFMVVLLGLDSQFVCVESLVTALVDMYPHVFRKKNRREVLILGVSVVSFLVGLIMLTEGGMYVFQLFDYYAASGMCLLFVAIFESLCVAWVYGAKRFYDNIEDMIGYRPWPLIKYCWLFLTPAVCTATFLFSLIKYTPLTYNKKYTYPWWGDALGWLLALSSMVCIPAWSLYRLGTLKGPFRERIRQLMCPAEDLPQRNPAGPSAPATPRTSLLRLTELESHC

| IC50 [nM] | Compound |
| --- | --- |
| > 100000 | Cc1ccccc1/C(=C\CCN1CCC[C@@H](C(=O)O)C1)c1ccccc1F |

target: T2, Sodium- and chloride-dependent betaine transporter (Homo sapiens, UniProt P48065); assay: Inhibition of BGT1
T2 sequence (P48065 whole entry): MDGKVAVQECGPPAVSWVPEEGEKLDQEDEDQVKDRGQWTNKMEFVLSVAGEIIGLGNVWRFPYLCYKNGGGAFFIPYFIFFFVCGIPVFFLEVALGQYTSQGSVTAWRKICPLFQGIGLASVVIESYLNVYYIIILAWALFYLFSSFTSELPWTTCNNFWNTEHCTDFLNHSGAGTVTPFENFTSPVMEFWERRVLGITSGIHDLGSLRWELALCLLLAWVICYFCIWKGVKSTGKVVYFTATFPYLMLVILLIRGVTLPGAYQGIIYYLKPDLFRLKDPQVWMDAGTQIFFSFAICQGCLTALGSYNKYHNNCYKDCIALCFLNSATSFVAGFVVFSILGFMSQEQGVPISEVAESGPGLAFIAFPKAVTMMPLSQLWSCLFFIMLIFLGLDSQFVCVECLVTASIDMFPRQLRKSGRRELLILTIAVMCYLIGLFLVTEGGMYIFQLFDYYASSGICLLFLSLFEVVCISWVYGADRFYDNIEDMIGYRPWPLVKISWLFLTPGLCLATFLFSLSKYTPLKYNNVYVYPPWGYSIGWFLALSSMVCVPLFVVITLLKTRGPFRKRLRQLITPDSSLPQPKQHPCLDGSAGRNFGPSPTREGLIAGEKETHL

| IC50 [nM] | Compound |
| --- | --- |
| > 100000 | Cc1ccccc1/C(=C\CCN1CCC[C@@H](C(=O)O)C1)c1ccccc1F |

target: Cytochrome P450 2C9 (Homo sapiens, UniProt P11712); assay: Inhibition of CYP2C9; format: ADME
Sequence (P11712 whole entry): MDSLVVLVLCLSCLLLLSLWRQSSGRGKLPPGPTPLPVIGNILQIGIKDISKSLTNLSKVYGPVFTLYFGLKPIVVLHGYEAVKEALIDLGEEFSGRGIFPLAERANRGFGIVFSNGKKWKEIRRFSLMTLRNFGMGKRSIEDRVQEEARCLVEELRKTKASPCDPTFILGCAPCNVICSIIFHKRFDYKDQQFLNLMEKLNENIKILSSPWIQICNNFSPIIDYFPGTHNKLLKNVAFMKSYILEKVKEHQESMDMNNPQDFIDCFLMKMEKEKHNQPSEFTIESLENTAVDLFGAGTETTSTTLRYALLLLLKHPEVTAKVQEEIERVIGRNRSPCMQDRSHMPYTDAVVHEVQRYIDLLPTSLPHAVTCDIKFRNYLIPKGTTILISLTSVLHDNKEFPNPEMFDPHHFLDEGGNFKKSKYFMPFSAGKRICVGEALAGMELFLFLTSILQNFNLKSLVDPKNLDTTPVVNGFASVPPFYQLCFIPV

| IC50 [nM] | Compound |
| --- | --- |
| > 10000 | Cc1ccccc1/C(=C\CCN1CCC[C@@H](C(=O)O)C1)c1ccccc1F |

target: Cytochrome P450 3A4 (Homo sapiens, UniProt P08684); assay: Inhibition of CYP3A4; format: ADME
Sequence (P08684 whole entry): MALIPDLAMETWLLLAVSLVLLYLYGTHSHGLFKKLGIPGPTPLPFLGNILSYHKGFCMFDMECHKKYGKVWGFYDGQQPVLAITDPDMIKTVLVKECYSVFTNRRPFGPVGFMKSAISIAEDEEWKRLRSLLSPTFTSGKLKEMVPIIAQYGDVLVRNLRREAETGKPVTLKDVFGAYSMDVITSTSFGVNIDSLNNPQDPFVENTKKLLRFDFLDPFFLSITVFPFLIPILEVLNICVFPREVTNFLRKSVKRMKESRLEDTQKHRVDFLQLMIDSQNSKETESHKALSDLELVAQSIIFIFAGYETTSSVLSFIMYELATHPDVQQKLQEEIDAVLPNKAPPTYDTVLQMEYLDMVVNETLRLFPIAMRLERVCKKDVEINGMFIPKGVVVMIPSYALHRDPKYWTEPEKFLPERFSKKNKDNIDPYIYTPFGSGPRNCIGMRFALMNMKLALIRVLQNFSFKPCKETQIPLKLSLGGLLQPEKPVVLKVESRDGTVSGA

| IC50 [nM] | Compound |
| --- | --- |
| > 10000 | Cc1ccccc1/C(=C\CCN1CCC[C@@H](C(=O)O)C1)c1ccccc1F |

target: Sodium- and chloride-dependent GABA transporter 1 (Homo sapiens, UniProt P30531); assay: Displacement of [3H]Tiagabine from human recombinant GAT1 expressed in HEK293 cells by equilibrium binding assay; format: cell-based
Sequence (P30531 whole entry): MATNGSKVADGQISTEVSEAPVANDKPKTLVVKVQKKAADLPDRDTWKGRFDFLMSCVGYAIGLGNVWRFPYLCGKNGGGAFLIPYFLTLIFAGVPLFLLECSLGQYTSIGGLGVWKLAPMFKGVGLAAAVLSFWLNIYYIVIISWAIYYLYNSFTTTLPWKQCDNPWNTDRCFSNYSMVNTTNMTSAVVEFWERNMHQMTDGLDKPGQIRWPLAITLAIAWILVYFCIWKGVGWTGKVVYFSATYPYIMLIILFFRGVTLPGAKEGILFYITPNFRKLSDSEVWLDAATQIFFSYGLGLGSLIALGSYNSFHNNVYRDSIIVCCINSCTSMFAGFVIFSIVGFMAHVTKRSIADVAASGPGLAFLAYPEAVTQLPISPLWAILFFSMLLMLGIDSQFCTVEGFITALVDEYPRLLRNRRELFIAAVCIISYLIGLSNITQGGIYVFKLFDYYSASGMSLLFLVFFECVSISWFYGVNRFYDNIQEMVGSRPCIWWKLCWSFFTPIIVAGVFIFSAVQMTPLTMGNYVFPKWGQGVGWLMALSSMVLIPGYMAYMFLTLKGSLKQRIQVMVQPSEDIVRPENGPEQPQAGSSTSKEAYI

| Compound | Ki [nM] |
| --- | --- |
| Cc1ccc(C(=CCCN2CCCC(F)(C(=O)O)C2)c2ccc(C)s2)s1 (configuration not stated) | 138 |
| O=C(O)C1(F)CCCN(CCC=C(c2ccccc2)c2ccccc2)C1 (configuration not stated) | 832 |
| O=C(O)[C@@H]1CCCN(CC/C=C(/c2ccccc2)c2c(F)cccc2F)C1 | 331 |
| Cc1ccc(C(=CCCN2CCOC(C(=O)O)C2)c2ccc(C)s2)s1 (configuration not stated) | > 10000 |
| Cc1ccccc1/C(=C/CCN1CCC[C@@H](C(=O)O)C1)c1ccccc1 | 93.3 |
| O=C(O)[C@@H]1CCCN(CC/C=C(\c2ccccc2)c2ccccc2F)C1 | 372 |
| Cc1ccccc1/C(=C\CCN1CCC[C@@H](C(=O)O)C1)c1ccccc1C(F)(F)F | 380 |
| O=C(O)[C@@H]1CCCN(CC/C=C(\c2ccccc2F)c2ccccc2Cl)C1 | 158 |
| Cc1ccc(C(=CCCN(C)[C@H]2CCCC[C@@H]2C(=O)O)c2ccc(C)s2)s1 | > 10000 |
| O=C(O)[C@@H]1CCCN(CC/C=C(\c2ccccc2)c2c(F)cccc2F)C1 | 692 |
| O=C(O)[C@@H]1CCCN(CC/C=C(\c2ccccc2F)c2ccccc2C(F)(F)F)C1 | 355 |
| CC(=O)[C@@H]1CC[C@H]2CC[C@@H]1N2CCC=C(c1ccccc1)c1ccccc1 | 2750 |
| Cc1ccc(C(=CCCN2CC[C@H]3[C@@H](C2)[C@@H]3C(=O)O)c2ccc(C)s2)s1 | > 10000 |
| O=C(O)[C@@H]1CCCN(CC/C=C(\c2ccccc2)c2ccccc2OC(F)(F)F)C1 | 646 |
| COc1ccccc1/C(=C/CCN1CCC[C@@H](C(=O)O)C1)c1ccccc1 | 372 |
| Cc1ccc(C(=CCCN(C)[C@H]2CCC[C@@H]2C(=O)O)c2ccc(C)s2)s1 | > 10000 |
| Cc1ccc(C(=CCCN2CC[C@@H]3[C@H](C2)[C@@H]3C(=O)O)c2ccc(C)s2)s1 | > 10000 |
| CCc1ccccc1/C(=C/CCN1CCC[C@@H](C(=O)O)C1)c1ccccc1 | 102 |
| Cc1cc(F)ccc1/C(=C/CCN1CCC[C@@H](C(=O)O)C1)c1ccccc1 | 380 |
| Cc1ccc(C(=CCCN2C[C@@H]3[C@H](C2)[C@H]3C(=O)O)c2ccc(C)s2)s1 | > 10000 |
| O=C(O)[C@@H]1CCCN(CC/C=C(\c2ccccc2)c2ccccc2-c2ccccc2)C1 | 676 |
| O=C(O)[C@@H]1CCCN(CC/C=C(\c2ccccc2)c2ccccc2Br)C1 | 200 |
| O=C(O)[C@@H]1CCCN(CC/C=C(/c2ccccc2)c2ccccc2-c2ccccc2)C1 | 1070 |
| O=C(O)[C@@H]1CCCN(CC/C=C(\c2ccccc2)c2ccccc2C(F)(F)F)C1 | 1910 |
| Cc1ccc(C(=CCCN2C[C@@H]3[C@H](C2)[C@@H]3C(=O)O)c2ccc(C)s2)s1 | > 10000 |
| O=C(O)[C@@H]1CCCN(CC/C=C(/c2ccccc2)c2ccccc2C(F)(F)F)C1 | 93.3 |
| O=C(O)[C@@H]1CCCN(CC/C=C(\c2ccccc2)c2ccccc2Cl)C1 | 166 |

Stronger by Ki, values ahead:

| Ki [nM] | Compound |
| --- | --- |
| 52.5 | O=C(O)[C@@H]1CCCN(CC/C=C(/c2ccccc2F)c2ccccc2OC(F)(F)F)C1 |
| 38 | CCc1ccccc1/C(=C\CCN1CCC[C@@H](C(=O)O)C1)c1ccccc1F |
| 19.1 | Cc1cc(F)ccc1/C(=C\CCN1CCC[C@@H](C(=O)O)C1)c1ccccc1F |
| 20.4 | Cc1ccccc1/C(=C\CCN1CCC[C@@H](C(=O)O)C1)c1ccccc1 |
| 41.7 | Cc1ccccc1C(=CCCN1CCC[C@@H](C(=O)O)C1)c1ccccc1C |
| 53.7 | COc1ccccc1/C(=C\CCN1CCC[C@@H](C(=O)O)C1)c1ccccc1F |
| 28.8 | O=C(O)[C@@H]1CCCN(CC/C=C(/c2ccccc2)c2ccccc2Br)C1 |
| 77.6 | Cc1cccc(C)c1/C(=C\CCN1CCC[C@@H](C(=O)O)C1)c1ccccc1 |
| 70.8 | COc1ccccc1/C(=C/CCN1CCC[C@@H](C(=O)O)C1)c1ccccc1C |
| 69.2 | O=C(O)[C@@H]1CCCN(CC/C=C(/c2ccccc2)c2ccccc2F)C1 |
| 40.7 | O=C(O)[C@@H]1CCCN(CC/C=C(/c2ccccc2)c2ccccc2Cl)C1 |
| 29.5 | CCc1ccccc1/C(=C\CCN1CCC[C@@H](C(=O)O)C1)c1ccccc1 |
| 58.9 | O=C(O)[C@@H]1CCCN(CC/C=C(/c2ccccc2)c2ccccc2OC(F)(F)F)C1 |
| 33.9 | Cc1cc(F)ccc1/C(=C\CCN1CCC[C@@H](C(=O)O)C1)c1ccccc1 |
| 72.4 | Cc1ccccc1/C(=C/CCN1CCC[C@@H](C(=O)O)C1)c1ccccc1F |
| 89.1 | CCc1ccccc1/C(=C/CCN1CCC[C@@H](C(=O)O)C1)c1ccccc1F |
| 46.8 | O=C(O)[C@@H]1CCCN(CCC=C(c2ccccc2F)c2ccccc2F)C1 |
| 14.8 | Cc1ccccc1/C(=C\CCN1CCC[C@@H](C(=O)O)C1)c1ccccc1F |
| 21.9 | O=C(O)[C@@H]1CCCN(CC/C=C(/c2ccccc2F)c2ccccc2Br)C1 |
| 38.9 | Cc1cc(F)ccc1/C(=C\CCN1CCC[C@@H](C(=O)O)C1)c1ccccc1C(F)(F)F |
| 56.2 | COc1ccccc1/C(=C\CCN1CCC[C@@H](C(=O)O)C1)c1ccccc1 |
| 61.7 | Cc1ccccc1/C(=C\CCN1CCC[C@@H](C(=O)O)C1)c1ccccc1Cl |
| 18.2 | O=C(O)[C@@H]1CCCN(CC/C=C(/c2ccccc2F)c2ccccc2Cl)C1 |

target: T3, Sodium- and chloride-dependent GABA transporter 3 (Homo sapiens, UniProt P48066); assay: Inhibition of GAT3
T3 sequence (P48066 whole entry): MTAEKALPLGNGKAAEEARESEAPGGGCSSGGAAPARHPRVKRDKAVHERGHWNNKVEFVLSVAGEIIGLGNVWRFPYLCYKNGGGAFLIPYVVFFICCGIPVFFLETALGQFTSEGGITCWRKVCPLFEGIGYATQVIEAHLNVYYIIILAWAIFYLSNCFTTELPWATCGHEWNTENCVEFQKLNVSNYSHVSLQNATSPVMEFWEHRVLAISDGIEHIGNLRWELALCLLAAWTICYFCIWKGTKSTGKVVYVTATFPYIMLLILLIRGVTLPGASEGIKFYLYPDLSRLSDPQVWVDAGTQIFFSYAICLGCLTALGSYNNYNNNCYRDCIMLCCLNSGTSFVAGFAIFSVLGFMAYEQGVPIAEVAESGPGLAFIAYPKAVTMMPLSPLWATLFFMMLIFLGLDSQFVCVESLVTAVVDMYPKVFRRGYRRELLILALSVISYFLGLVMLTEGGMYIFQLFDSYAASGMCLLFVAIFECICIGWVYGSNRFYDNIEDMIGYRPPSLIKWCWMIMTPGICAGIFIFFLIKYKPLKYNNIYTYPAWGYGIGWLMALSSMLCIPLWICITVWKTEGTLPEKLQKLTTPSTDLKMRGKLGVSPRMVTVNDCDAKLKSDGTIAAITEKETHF

| IC50 [nM] | Compound |
| --- | --- |
| > 100000 | Cc1ccccc1/C(=C\CCN1CCC[C@@H](C(=O)O)C1)c1ccccc1F |

target: T4, Cytochrome P450 1A2 (Homo sapiens, UniProt P05177); assay: Inhibition of CYP1A2; format: ADME
T4 sequence (P05177 whole entry): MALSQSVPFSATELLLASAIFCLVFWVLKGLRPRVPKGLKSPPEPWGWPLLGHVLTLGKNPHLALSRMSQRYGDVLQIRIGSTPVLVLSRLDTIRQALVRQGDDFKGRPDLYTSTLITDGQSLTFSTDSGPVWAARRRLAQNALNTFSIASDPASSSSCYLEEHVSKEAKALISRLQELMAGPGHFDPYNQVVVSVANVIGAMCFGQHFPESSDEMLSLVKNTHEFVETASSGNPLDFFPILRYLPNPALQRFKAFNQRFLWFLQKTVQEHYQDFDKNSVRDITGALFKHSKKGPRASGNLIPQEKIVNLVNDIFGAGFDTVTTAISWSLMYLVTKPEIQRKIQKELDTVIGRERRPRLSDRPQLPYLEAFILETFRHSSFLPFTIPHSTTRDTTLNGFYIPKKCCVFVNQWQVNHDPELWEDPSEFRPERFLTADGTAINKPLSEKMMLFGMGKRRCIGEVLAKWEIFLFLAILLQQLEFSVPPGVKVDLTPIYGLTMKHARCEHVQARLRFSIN

| IC50 [nM] | Compound |
| --- | --- |
| > 10000 | Cc1ccccc1/C(=C\CCN1CCC[C@@H](C(=O)O)C1)c1ccccc1F |
